Assay results as given in patent US9273040B2 (Merck Sharp & Dohme Corp., priority 2011, dated 2016).

Columns and labels:
[1] = molecular target: T1, human Nav1.5 channels stably expressed in HEK 293 cells (Homo sapiens, UniProt Q14524); assay: PatchXpress 7000 automated patch-clamp, sodium current; type: cell-based; settings: selectivity over Nav1.5
T1 construct: expressed in transfected cells
How it was run: (§1)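 IC50 values came from Hill-equation fits of rundown-corrected inhibition. PatchXpress recordings at 22° C held cells 20 mV negative to V0.5 inact and applied 10 Hz trains of 30 ms steps to −20 mV (Nav1.7) or an 8000 ms prepulse 7 mV positive to V0.5 inact. […]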

[2] = molecular target: T2, human Nav1.7 channels stably expressed in HEK 293 cells (Homo sapiens, UniProt Q15858); assay: as above; type: cell-based; settings: 22° C., read-out: potency for the Nav 1.7 sodium ion channel (as measured by PatchXpress)
T2 construct: expressed in transfected cells
T2 sequence (Q15858 whole entry): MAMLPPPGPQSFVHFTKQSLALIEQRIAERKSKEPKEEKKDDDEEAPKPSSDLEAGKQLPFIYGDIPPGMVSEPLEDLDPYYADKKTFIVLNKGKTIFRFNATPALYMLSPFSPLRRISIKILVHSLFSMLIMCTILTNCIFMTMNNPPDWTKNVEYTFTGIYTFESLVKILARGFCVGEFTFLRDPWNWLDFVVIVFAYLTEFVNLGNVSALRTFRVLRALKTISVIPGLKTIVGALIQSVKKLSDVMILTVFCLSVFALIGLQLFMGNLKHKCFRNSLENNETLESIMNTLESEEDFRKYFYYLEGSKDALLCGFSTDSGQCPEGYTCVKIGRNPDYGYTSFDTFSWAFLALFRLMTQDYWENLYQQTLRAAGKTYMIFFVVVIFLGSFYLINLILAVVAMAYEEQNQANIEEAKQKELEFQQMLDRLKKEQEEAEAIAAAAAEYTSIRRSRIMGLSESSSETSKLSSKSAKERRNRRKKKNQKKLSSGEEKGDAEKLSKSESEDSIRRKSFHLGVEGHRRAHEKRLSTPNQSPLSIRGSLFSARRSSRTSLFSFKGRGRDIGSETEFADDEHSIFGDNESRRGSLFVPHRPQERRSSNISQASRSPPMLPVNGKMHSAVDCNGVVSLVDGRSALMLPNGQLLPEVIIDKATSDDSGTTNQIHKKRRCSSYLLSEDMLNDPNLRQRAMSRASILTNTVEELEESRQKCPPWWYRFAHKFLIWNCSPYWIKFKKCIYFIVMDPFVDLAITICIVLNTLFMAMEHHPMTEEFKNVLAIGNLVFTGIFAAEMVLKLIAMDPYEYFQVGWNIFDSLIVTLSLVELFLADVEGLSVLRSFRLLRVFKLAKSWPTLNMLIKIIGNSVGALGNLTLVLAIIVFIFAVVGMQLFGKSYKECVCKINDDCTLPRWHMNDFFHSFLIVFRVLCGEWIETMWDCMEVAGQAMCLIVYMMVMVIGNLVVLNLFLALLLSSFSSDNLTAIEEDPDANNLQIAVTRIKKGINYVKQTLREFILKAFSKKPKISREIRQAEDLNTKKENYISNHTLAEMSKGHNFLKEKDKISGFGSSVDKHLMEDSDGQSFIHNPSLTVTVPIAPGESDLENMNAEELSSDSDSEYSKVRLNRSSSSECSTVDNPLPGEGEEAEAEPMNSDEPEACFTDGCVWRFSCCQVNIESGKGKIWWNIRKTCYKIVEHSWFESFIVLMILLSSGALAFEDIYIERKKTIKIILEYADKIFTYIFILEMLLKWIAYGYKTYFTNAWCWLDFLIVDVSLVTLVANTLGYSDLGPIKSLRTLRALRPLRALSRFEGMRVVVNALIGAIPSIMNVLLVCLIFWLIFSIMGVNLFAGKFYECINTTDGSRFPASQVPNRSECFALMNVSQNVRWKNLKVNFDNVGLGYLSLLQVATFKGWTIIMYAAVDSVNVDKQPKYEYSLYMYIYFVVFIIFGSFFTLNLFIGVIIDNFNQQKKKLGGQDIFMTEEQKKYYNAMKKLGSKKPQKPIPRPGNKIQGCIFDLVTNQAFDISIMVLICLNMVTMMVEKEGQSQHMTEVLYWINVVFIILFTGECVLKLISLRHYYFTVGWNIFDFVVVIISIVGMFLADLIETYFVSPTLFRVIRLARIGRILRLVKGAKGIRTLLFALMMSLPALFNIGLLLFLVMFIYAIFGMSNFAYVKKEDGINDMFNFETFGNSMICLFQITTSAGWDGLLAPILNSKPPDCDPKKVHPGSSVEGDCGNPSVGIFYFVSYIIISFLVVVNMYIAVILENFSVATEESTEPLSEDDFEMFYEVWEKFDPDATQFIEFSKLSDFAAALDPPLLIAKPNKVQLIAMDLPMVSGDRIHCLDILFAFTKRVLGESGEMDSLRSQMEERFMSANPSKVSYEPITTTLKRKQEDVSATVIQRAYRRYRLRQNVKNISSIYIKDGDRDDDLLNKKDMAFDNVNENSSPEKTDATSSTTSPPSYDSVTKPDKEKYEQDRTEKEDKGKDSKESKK
How it was run: as §1

T1 sequence (Q14524 whole entry): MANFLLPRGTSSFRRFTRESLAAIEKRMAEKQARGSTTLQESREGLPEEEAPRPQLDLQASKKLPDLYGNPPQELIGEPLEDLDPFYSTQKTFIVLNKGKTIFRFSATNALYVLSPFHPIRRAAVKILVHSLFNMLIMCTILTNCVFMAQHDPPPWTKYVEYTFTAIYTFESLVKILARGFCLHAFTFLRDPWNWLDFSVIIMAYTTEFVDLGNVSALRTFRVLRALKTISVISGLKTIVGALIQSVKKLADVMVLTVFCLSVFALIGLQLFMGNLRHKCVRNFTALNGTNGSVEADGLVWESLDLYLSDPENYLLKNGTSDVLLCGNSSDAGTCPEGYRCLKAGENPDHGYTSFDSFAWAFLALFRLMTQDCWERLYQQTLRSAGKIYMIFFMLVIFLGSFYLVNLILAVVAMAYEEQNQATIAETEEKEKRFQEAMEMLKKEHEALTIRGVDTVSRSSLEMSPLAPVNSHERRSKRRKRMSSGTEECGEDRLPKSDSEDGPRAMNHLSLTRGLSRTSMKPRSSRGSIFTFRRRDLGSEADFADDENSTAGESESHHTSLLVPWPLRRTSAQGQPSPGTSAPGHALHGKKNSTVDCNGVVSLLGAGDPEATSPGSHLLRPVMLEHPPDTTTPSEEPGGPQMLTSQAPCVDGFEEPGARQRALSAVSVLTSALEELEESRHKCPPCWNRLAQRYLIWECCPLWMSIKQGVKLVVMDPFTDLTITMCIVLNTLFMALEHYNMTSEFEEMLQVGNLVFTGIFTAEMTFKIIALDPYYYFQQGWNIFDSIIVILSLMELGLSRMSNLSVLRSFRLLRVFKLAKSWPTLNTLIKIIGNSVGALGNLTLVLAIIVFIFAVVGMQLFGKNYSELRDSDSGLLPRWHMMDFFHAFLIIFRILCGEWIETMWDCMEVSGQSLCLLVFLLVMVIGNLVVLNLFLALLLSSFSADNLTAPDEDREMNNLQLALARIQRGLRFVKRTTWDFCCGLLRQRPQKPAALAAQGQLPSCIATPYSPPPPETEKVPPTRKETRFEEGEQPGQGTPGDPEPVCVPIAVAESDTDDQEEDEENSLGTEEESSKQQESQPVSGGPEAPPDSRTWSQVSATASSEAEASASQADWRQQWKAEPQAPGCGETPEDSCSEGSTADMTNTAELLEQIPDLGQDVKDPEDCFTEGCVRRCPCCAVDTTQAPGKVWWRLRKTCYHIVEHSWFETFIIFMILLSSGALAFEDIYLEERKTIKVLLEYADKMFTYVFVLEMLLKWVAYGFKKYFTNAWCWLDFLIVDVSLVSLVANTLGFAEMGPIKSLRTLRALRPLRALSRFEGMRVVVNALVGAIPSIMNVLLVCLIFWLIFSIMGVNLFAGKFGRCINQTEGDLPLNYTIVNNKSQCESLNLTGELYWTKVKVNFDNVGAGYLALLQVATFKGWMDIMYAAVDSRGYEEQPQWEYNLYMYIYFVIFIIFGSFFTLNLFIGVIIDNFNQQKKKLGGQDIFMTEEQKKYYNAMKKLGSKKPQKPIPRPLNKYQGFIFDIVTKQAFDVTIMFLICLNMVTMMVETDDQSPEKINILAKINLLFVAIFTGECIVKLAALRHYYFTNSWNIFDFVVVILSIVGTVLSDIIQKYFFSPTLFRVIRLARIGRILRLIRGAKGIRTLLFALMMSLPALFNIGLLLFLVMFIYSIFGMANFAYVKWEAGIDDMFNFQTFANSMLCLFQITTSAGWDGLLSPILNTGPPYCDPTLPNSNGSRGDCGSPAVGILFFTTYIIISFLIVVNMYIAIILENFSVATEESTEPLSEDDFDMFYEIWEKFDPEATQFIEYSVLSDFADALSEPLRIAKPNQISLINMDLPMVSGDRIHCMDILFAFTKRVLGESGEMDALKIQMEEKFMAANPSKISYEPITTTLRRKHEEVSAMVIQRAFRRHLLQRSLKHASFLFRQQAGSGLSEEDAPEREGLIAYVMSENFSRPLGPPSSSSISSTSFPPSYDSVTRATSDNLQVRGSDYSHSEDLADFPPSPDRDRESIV

Row | SMILES | ratio of Nav 1.5:Nav 1.7 potency, determined by PatchXpress measurement [1] | IC50 [2]
1 | NC1CCc2cccc(Cn3c(=O)oc4cc(S(=O)(=O)Nc5ncns5)ccc43)c2C1 (single isomer, unassigned) [Compound 23-14, (S or R)-3-[(7-amino-5,6,7,8-tetrahydronaphthalen-1-yl)methyl]-2-oxo-N-1,2,4-thiadiazol-5-yl-2,3-dihydro-1,3-benzoxazole-6-sulfonamide] | 393 | 75 nM
2 | O=c1oc2cc(S(=O)(=O)Nc3ncns3)c(F)cc2n1Cc1cccc2c1C1CC1C=C2 (centres unmarked) [Compound 11-13, 3-(1a,7b-dihydro-1H-cyclopropa[a]naphthalen-7-ylmethyl)-5-fluoro-2-oxo-N-1,2,4-thiadiazol-5-yl-2,3-dihydro-1,3-benzoxazole-6-sulfonamide] | 50 | 49 nM
3 | C[C@H](c1ccccc1C1(F)CNC1)n1c(=O)oc2cc(S(=O)(=O)Nc3nccs3)c(F)cc21 [Compound 43-23, 5-fluoro-3-{(1R)-1-[2-(3-fluoroazetidin-3-yl)phenyl]ethyl}-2-oxo-N-1,3-thiazol-2-yl-2,3-dihydro-1,3-benzoxazole-6-sulfonamide] | 5541 | 4 nM
4 | C[C@H](O)C#Cc1ccccc1[C@@H](C)n1c(=O)oc2cc(S(=O)(=O)Nc3ncns3)c(F)cc21 [Compound 17-12, 5-fluoro-3-[(1R)-1-{2-[(3S)-3-hydroxybut-1-yn-1-yl]phenyl}ethyl]-2-oxo-N-1,2,4-thiadiazol-5-yl-2,3-dihydro-1,3-benzoxazole-6-sulfonamide] | 262 | 37 nM
5 | C[C@H](c1cccc2c1CN(S(C)(=O)=O)CC2)n1c(=O)oc2cc(S(=O)(=O)Nc3ncns3)c(F)cc21 [Compound 36-5, 5-fluoro-3-{(1R)-1-[2-(methylsulfonyl)-1,2,3,4-tetrahydroisoquinolin-8-yl]ethyl}-2-oxo-N-1,2,4-thiadiazol-5-yl-2,3-dihydro-1,3-benzoxazole-6-sulfonamide] | 35 | 155 nM
6 | C[C@H](c1ccccc1)n1c(=O)oc2cc(S(=O)(=O)Nc3nccs3)ccc21 [Compound 41-4, (R)-2-oxo-3-(1-phenylethyl)-N-(thiazol-2-yl)-2,3-dihydrobenzo[d]oxazole-6-sulfonamide] | 187 | 161 nM
7 | O=c1oc2cc(S(=O)(=O)Nc3ncns3)c(F)cc2n1C1CCOc2ccccc21 (centres unmarked) [Compound 39-6, 3-(3,4-dihydro-2H-chromen-4-yl)-5-fluoro-2-oxo-N-1,2,4-thiadiazol-5-yl-2,3-dihydro-1,3-benzoxazole-6-sulfonamide] | 110 | 221 nM
8 | C[C@H](c1ccccc1CN1CCCC1)n1c(=O)oc2cc(S(=O)(=O)Nc3ncns3)c(F)cc21 [Compound 18-2, (R)-5-fluoro-2-oxo-3-(1-(2-(pyrrolidin-1-ylmethyl)phenyl)ethyl)-N-(1,2,4-thiadiazol-5-yl)-2,3-dihydrobenzo[d]oxazole-6-sulfonamide] | 446 | 24 nM
9 | O=c1oc2cc(S(=O)(=O)Nc3ncns3)ccc2n1Cc1cccc2cc(Cl)ncc12 [Compound 27-7, 3-[(3-chloroisoquinolin-8-yl)methyl]-2-oxo-N-1,2,4-thiadiazol-5-yl-2,3-dihydro-1,3-benzoxazole] | 144 | 182 nM
10 | O=c1oc2cc(S(=O)(=O)Nc3ncns3)c(F)cc2n1CC1CC1c1ccccc1 (centres unmarked) [Compound 11-10, 5-fluoro-2-oxo-3-[(2-phenylcyclopropyl)methyl]-N-1,2,4-thiadiazol-5-yl-2,3-dihydro-1,3-benzoxazole-6-sulfonamide] | 123 | 44 nM
11 | O=c1oc2cc(S(=O)(=O)Nc3nccs3)c(F)cc2n1C1CCCc2c(F)cccc21 (centres unmarked) [Compound 43-8, 5-fluoro-3-(5-fluoro-1,2,3,4-tetrahydronaphthalen-1-yl)-2-oxo-N-1,3-thiazol-2-yl-2,3-dihydro-1,3-benzoxazole-6-sulfonamide] | 75 | 71 nM
12 | O=c1oc2cc(S(=O)(=O)Nc3ncns3)c(F)cc2n1C1COCc2ccccc21 (centres unmarked) [Compound 39-8, 3-(3,4-dihydro-1H-isochromen-4-yl)-5-fluoro-2-oxo-N-1,2,4-thiadiazol-5-yl-2,3-dihydro-1,3-benzoxazole-6-sulfonamide] | 29 | 204 nM
13 | C[C@H](c1ccccc1)n1c(=O)oc2cc(S(=O)(=O)Nc3nccs3)c(F)cc21 [Compound 43-2, (R)-5-fluoro-2-oxo-3-(1-phenylethyl)-N-(thiazol-2-yl)-2,3-dihydrobenzo[d]oxazole-6-sulfonamide] | 88 | 68 nM
14 | O=c1oc2cc(S(=O)(=O)Nc3nccs3)c(F)cc2n1C1CCCc2ccc(Cl)nc21 (centres unmarked) [Compound 43-5, 3-(2-chloro-5,6,7,8-tetrahydroquinolin-8-yl)-5-fluoro-2-oxo-N-1,3-thiazol-2-yl-2,3-dihydro-1,3-benzoxazole-6-sulfonamide] | 202 | 416 nM
15 | Cc1cccc2c1CCCC2n1c(=O)oc2cc(S(=O)(=O)Nc3ncns3)c(F)cc21 (centres unmarked) [Compound 39-5, 5-fluoro-3-(5-methyl-1,2,3,4-tetrahydronaphthalen-1-yl)-2-oxo-N-1,2,4-thiadiazol-5-yl-2,3-dihydro-1,3-benzoxazole-6-sulfonamide] | 14 | 261 nM
16 | O=c1oc2cc(S(=O)(=O)Nc3nccs3)c(F)cc2n1Cc1cccc2c1CNCC2F (racemic) [Compound 43-26, (+/-)-5-fluoro-3-[(4-fluoro-1,2,3,4-tetrahydroisoquinolin-8-yl)methyl]-2-oxo-N-1,3-thiazol-2-yl-2,3-dihydro-1,3-benzoxazole-6-sulfonamide] | 150 | 141 nM
17 | CC(=O)NC1CCc2cccc(Cn3c(=O)oc4cc(S(=O)(=O)Nc5ncns5)c(F)cc43)c2C1 (centres unmarked) [Compound 22-1, N-(8-((6-(N-(1,2,4-thiadiazol-5-yl)sulfamoyl)-5-fluoro-2-oxobenzo[d]oxazol-3(2H)-yl)methyl)-1,2,3,4-tetrahydronaphthalen-2-yl)acetamide] | 172 | 175 nM
18 | CNC1CCc2cccc(Cn3c(=O)oc4cc(S(=O)(=O)Nc5ncns5)ccc43)c2C1 (racemic) [Compound 23-18, (+/−)-3-{[7-(methylamino)-5,6,7,8-tetrahydronaphthalen-1-yl]methyl}-2-oxo-N-1,2,4-thiadiazol-5-yl-2,3-dihydro-1,3-benzoxazole-6-sulfonamide] | 642 | 47 nM
19 | O=c1oc2cc(S(=O)(=O)Nc3nccs3)c(F)cc2n1Cc1cccc2c1CNCC2F (single isomer, unassigned) [Compound 43-28, (S or R)-5-fluoro-3-[(4-fluoro-1,2,3,4-tetrahydroisoquinolin-8-yl)methyl]-2-oxo-N-1,3-thiazol-2-yl-2,3-dihydro-1,3-benzoxazole-6-sulfonamide] | 684 | 120 nM
20 | CN(C)C1CCc2cccc(Cn3c(=O)oc4cc(S(=O)(=O)Nc5ncns5)c(F)cc43)c2C1 (racemic) [Compound 23-15, (+/−)-3-{[7-(dimethylamino)-5,6,7,8-tetrahydronaphthalen-1-yl]methyl}-5-fluoro-2-oxo-N-1,2,4-thiadiazol-5-yl-2,3-dihydro-1,3-benzoxazole-6-sulfonamide] | 207 | 72 nM
21 | C[C@H](c1cccc2ccncc12)n1c(=O)oc2cc(S(=O)(=O)Nc3ncns3)ccc21 [Compound 14-7, (R)-3-(1-(isoquinolin-8-yl)ethyl)-2-oxo-N-(1,2,4-thiadiazol-5-yl)-2,3-dihydrobenzo[d]oxazole-6-sulfonamide] | 749 | 40 nM
22 | O=c1oc2cc(S(=O)(=O)Nc3nccs3)c(F)cc2n1C1CCCc2c(F)cc(F)cc21 (centres unmarked) [Compound 43-9, 3-(5,7-difluoro-1,2,3,4-tetrahydronaphthalen-1-yl)-5-fluoro-2-oxo-N-1,3-thiazol-2-yl-2,3-dihydro-1,3-benzoxazole-6-sulfonamide] | 95 | 67 nM
23 | C[C@H](c1ccccc1C1(O)CNC1)n1c(=O)oc2cc(S(=O)(=O)Nc3ncns3)c(F)cc21 [Compound 32-4, (R)-5-fluoro-3-(1-(2-(3-hydroxyazetidin-3-yl)phenyl)ethyl)-2-oxo-N-(1,2,4-thiadiazol-5-yl)-2,3-dihydrobenzo[d]oxazole-6-sulfonamide] | 110 | 34 nM
24 | C[C@H](c1ccccc1CN1CCC(F)(F)C1)n1c(=O)oc2cc(S(=O)(=O)Nc3ncns3)c(F)cc21 [Compound 18-3, 3-[(1R)-1-{2-[(3,3-difluoropyrrolidin-1-yl)methyl]phenyl}ethyl]-5-fluoro-2-oxo-N-1,2,4-thiadiazol-5-yl-2,3-dihydro-1,3-benzoxazole-6-sulfonamide] | 15 | 768 nM
25 | C[C@H](c1ccccc1CCCN)n1c(=O)oc2cc(S(=O)(=O)Nc3ncns3)c(F)cc21 [Compound 33-7, (R)-3-(1-(2-(3-Aminopropyl)phenyl)ethyl)-5-fluoro-2-oxo-N-(1,2,4-thiadiazol-5-yl)-2,3-dihydrobenzo[d]oxazole-6-sulfonamide] | 166 | 51 nM
